According to US4335127A, “Piperidinylalkyl quinazoline compounds, composition and method of use” (Janssen Pharmaceutica, N.V., priority 1979, dated 1982):

Experiments:
[1] = tested on: Caudal Artery of the Rat (effect of serotonin); assay: Antagonistic Activity on the Effect of Serotonin on the Caudal Artery of the Rat (Test 1); settings: serotonin 40 ng/ml; 5 minutes after adding the drug; rat caudal artery strips
Experimental: Caudal arteries from fasted male rats (210-235 g) are used in the test. Two helical strips having a length of 5-6 cm and a width of 2 mm are obtained from each artery and mounted vertically in a 100 ml organ bath containing an oxygenated Krebs-Henseleit solution. Submaximal contractions of the arterial strips are produced by adding single doses of serotonin (40 ng/ml) to the organ bath for 2 minutes with each time an interval of 10 minutes. The amplitude of the contraction is measured before and 5 minutes after adding the drug. After washing out, the agonist is added again three times in order to see whether the contraction is restored and normalized. […] In this connection the ED50 -values are the minimal concentrations of the concerned drugs which reduce the amplitude of the contraction to at least 50% of its normal value.

[2] = tested on: lesions in the glandular area of the stomach and distension of the stomach induced by compound 48/80 in rats; assay: Gastric lesion test: lesions induced by compound 48/80 (Test 2); format: in vivo, rat (male, Wistar inbred strain); settings: oral, 2 hours before compound 48/80 (1 mg/kg i.v.); stomachs inspected 4 hours after
Experimental: (§1) The shock, followed by dead, can be avoided if the rats are pretreated with a classical H 1 antagonist.
(§2) Male rats of a Wistar inbred strain, weighing 220-250 g, are starved overnight, water being available ad libitum. The test compounds are administered orally as a solution or as a suspension in aqueous medium. A control rat and a "blank" rat receive the test compound. One hour later 5-[4-(diphenylmethyl)-1-piperazinylmethyl]-1-methyl-1H-benzimidazole-2-methanol is administered subcutaneously to all rats at the dose of 2.5 mg/kg. […] Five minutes after the injection the intensity of purple-blue coloration (cyanosis) of the extremities is scored as 0 (absent), +(moderate) or ++(intense). Four hours after the intravenous injection of compound 48/80 the rats are decapitated and the stomachs are removed. Subsequently the stomachs are inspected for distension and contents (blood, fluid, food) and thoroughly rinsed. The macroscopic lesions are scored from 0 to + ++, 0 corresponding to complete absence of visible lesions and the highest score corresponding to reddish rough patches covering more than half the glandular area.

[3] = tested on: cyanosis of ears and extremities induced by compound 48/80 in rats; assay: Cyanosis of ears and extremities induced by compound 48/80 (Test 2); format: in vivo, rat (male, Wistar inbred strain); settings: Rattus norvegicus, po, 5 min; read-out: Cyanosis ED50 (dose at which cyanosis of ears and extremities is completely absent in 50% of the test rats)
Experimental: as §1, §2

SMILES | Caudal artery ED50 (minimal concentration which reduces the amplitude of the serotonin-induced contraction to at least 50% of its normal value) [1] | G. lesion ED50 (dose at which distension of the stomach and lesions in the glandular area are completely absent in 50% of the test rats) [2] | ED50 [3]
O=C1NC(CCN2CCC(C(=O)c3ccc(F)cc3)CC2)Nc2ccccc21 (stereo not drawn) [2-[2-[4-(4-fluorobenzoyl)-1-piperidinyl]ethyl]-2,3-dihydro-4(1H)-quinazolinone] | 0.7 ng/mL | 2.5 mg/kg | 1.25 mg/kg
O=C(c1ccc(F)cc1)C1CCN(CCCn2c(=S)[nH]c3ccccc3c2=O)CC1 [3-[3-[4-(4-fluorobenzoyl)-1-piperidinyl]propyl]-2,3-dihydro-2-thioxo-4(1H)-quinazolinone] | 2 ng/mL | 2.5 mg/kg | 0.63 mg/kg
Cc1ccc2[nH]c(=O)n(CCN3CCC(C(=O)c4ccc(F)cc4)CC3)c(=O)c2c1 | 1.3 ng/mL | 2.5 mg/kg | 0.63 mg/kg
O=C(c1ccc(F)cc1)C1CCN(CCn2c(=O)[nH]c3ccccc3c2=O)CC1 [3-[2-[4-(4-fluorobenzoyl)-1-piperidinyl]ethyl]-2,4-(1H,3H)-quinazolinedione] | 0.7 ng/mL | 0.16 mg/kg | 0.08 mg/kg
O=C(c1ccc(Cl)cc1)C1CCN(CCn2c(=O)[nH]c3ccccc3c2=O)CC1 | 2.5 ng/mL | – | –
Cn1c(=O)n(CCN2CCC(C(=O)c3ccc(F)cc3)CC2)c(=O)c2ccccc21 | 0.7 ng/mL | 1.25 mg/kg | 0.16 mg/kg
O=C(c1ccc(F)cc1)C1CCN(CCn2cnc3ccccc3c2=O)CC1 [3-[2-[4-(4-fluorobenzoyl)-1-piperidinyl]ethyl]-4(3H)-quinazolinone] | 0.6 ng/mL | 0.31 mg/kg | 0.31 mg/kg
O=C(c1ccc(F)cc1)C1CCN(CCCn2c(=O)[nH]c3ccccc3c2=O)CC1 | 1.25 ng/mL | 2.5 mg/kg | –
COc1ccc(C(=O)C2CCN(CCn3c(=O)[nH]c4ccccc4c3=O)CC2)cc1 | 2.5 ng/mL | – | –
O=C(O)/C=C/C(=O)O.O=C(c1ccc(F)cc1)C1CCN(CCCN2CNc3ccccc3C2=O)CC1 [3-[3-[4-(4-fluorobenzoyl)-1-piperidinyl]propyl]-2,3-dihydro-4-(1H)-quinazolinone (E)-2-butenedioate (1:1)] | 10 ng/mL | ≥ 2.5 mg/kg | –
O=C(c1ccc(F)cc1)C1CCN(CCn2c(=O)[nH]c3cc(F)ccc3c2=O)CC1 [7-fluoro-3-[2-[4-(4-fluorobenzoyl)-1-piperidinyl]ethyl]-2,4(1H,3H)-quinazolinedione] | 0.7 ng/mL | 1.25 mg/kg | 0.16 mg/kg
O=C(O)/C=C/C(=O)O.O=C(c1ccc(F)cc1)C1CCN(CCCn2cnc3ccccc3c2=O)CC1 [3-[3-[4-(4-fluorobenzoyl)-1-piperidinyl]propyl]-4(3H)-quinazolinone (E)-2-butenedioate (1:1)] | 5 ng/mL | 2.5 mg/kg | –
COc1ccc2c(=O)n(CCN3CCC(C(=O)c4ccc(F)cc4)CC3)c(=O)[nH]c2c1 [3-[2-[4-(4-fluorobenzoyl)-1-piperidinyl]ethyl]-7-methoxy-2,4(1H,3H)-quinazolinedione] | 0.7 ng/mL | 0.31 mg/kg | 0.16 mg/kg
O=C(c1ccc(F)cc1)C1CCN(CCN2CNc3ccccc3C2=O)CC1 [3-[2-[4-(4-fluorobenzoyl)-1-piperidinyl]ethyl]-2,3-dihydro-4(1H)-quinazolinone] | 5 ng/mL | ≥ 2.5 mg/kg | –
O=c1[nH]c2ccccc2c(=O)n1CCN1CCC(C(O)c2ccc(F)cc2)CC1 (stereo not drawn) [3-[2-[4-[(4-fluorophenyl)hydroxymethyl]-1-piperidinyl]ethyl]-2,4(1H,3H)-quinazolinedione] | 20 ng/mL | 1.25 mg/kg | 1.25 mg/kg
O=C(c1ccc(F)cc1)C1CCN(CCN2C(=O)Nc3ccc(Cl)cc3C2c2ccccc2)CC1 (stereo not drawn) [6-chloro-3-[2-[4-(4-fluorobenzoyl)-1-piperidinyl]ethyl]-3,4-dihydro-4-phenyl-2(1H)-quinazolinone] | – | 0.63 mg/kg | 0.63 mg/kg
O=C(c1ccc(F)cc1)C1CCN(CCN2C(=O)Nc3ccccc3C2c2ccccc2)CC1 (stereo not drawn) [drawing 34: R^6=C6H5, Alk=(CH2)2, Ar=4-FC6H4, 3-[2-[4-(4-fluorobenzoyl)-1-piperidinyl]ethyl]-3,4-dihydro-4-phenyl-2(1H)-quinazolinone] | 0.6 ng/mL | 0.08 mg/kg | 0.08 mg/kg
O=c1[nH]c2ccccc2c(=O)n1CCN1CCC(C2(c3ccc(F)cc3)OCCO2)CC1 | 11 ng/mL | 0.31 mg/kg | 0.16 mg/kg
O=C(c1ccc(F)cc1)C1CCN(CCn2c(=S)[nH]c3ccccc3c2=O)CC1 [3-[2-[4-(4-fluorobenzoyl)-1-piperidinyl]ethyl]-2,3-dihydro-2-thioxo-4(1H)-quinazolinone] | 0.6 ng/mL | 0.08 mg/kg | 0.04 mg/kg
Nc1cc(F)ccc1C(=O)C1CCN(CCn2c(=O)[nH]c3ccccc3c2=O)CC1 [3-[2-[4-(2-amino-4-fluorobenzoyl)-1-piperidinyl]ethyl]-2,4(1H,3H)-quinazolinedione] | 0.6 ng/mL | 1.25 mg/kg | 0.16 mg/kg
